Where no end group is shown, it is not given here.
How the values were obtained:
anti-β2GPI ILA-3 mAb [1] = experiment: Competition ELISA: inhibition of ILA-3 mAb binding to β2GPI; set-up: species or system human; conditions: 10 μM peptide concentration
Procedure: (§1) FIGS. 1A–1C are graphs showing inhibition of the anti-β2GPI ILA-1, ILA-3 and G-3 mAbs binding to β2GPI by competition assays using increasing concentrations of the inhibitory monomer peptides A, B and C, respectively, and of unrelated peptide D as control. The percent of inhibition was calculated as follows: % inhibition=O.D control−O.D with inhibitor/O.D control×100. Each point represents mean±SD of three different experiments.
(e) Inhibition of anti-β2GPI mAb binding to β2GPI by the inhibitory peptides. For competition ELISA tests, the anti-β2GPI mAbs (10 μg/ml) were preincubated (overnight at 4° C.) with varying concentrations of the peptides. The competition reaction was then transferred to β2GPI-coated γ-irradiated ELISA plates (Nunc), and the assay continued as described above. The percentage of inhibition was calculated as follows: % inhibition=O.D control −O.D with inhibitor/O.D control×100.
(2a) The specificity of interaction of the mAbs with the corresponding synthetic peptides A, B, C and control peptide D as monomers, was assessed by inhibition experiments as described in Materials and Methods, sections (e) and (f).

anti-β2GPI ILA-3 mAb [2] = experiment: Cyto-ELISA: inhibition of ILA-3 mAb binding to HUVEC; set-up: species or system human; conditions: peptide concentration of 10 μM
Procedure: as §1, with “FIGS. 2A–2C” for “FIGS. 1A–1C”, “to human umbilical vein endothelial cells (HUVEC)” for “to β2GPI”, “as in FIG. 1 above.” for “as follows: % inhibition=O.D control−O.D with inhibitor/O.D control×100.”
(f) Anti-β2GPI mAb binding to endothelial cells in the presence of the inhibitory peptides. Human umbilical vein endothelial cells (HUVEC) were isolated as previously described and cultured under standard conditions (Jaffe et al., 1973). Briefly, umbilical cords were treated with collagenase (0.2% from Clostridium histolyticum, Boehringer) for 20 min at 37° C., cells were cultured in medium 199 with 20% FCS, 10 μg/ml growth supplement, 100 μg/ml heparin and antibiotics (streptomycin, penicillin), and used at passages 1–2 for plating onto gelatin-coated 96-well plates. Cyto-ELISA was performed as detailed before (Jaffe et al., 1973). Briefly, mAbs at different concentrations were added to HUVEC confluent wells, previously coated with 10 μg/ml β2GPI for 2 hours and fixed with 0.1% glutaraldehyde. The bound mAb was detected by further 1-hour incubation with alkaline phosphatase-conjugated goat anti-human IgM. […]

anti-β2GPI ILA-3 mAb [3] = experiment: U937 monocyte adhesion to HUVEC exposed to ILA-3 mAb; format: cell-based, human; conditions: ILA-3 mAb preincubated with peptide, 15 μM peptide
Procedure: FIGS. 3A–3C are graphs showing inhibition of U937 monocyte cell adhesion to HUVEC upon exposure to anti-β2GPI ILA-1, ILA-3 and G-3 mAbs and increasing concentrations of the inhibitory monomer peptides A, B and C, respectively, and of unrelated peptide D as control. The percentage of inhibition of adhesion was calculated as follows: % inhibition of adhesion=CPM in the presence of anti-β2GPI mAb−CPM in the presence of anti-β2GPI mAb and the tested peptide/CPM in the presence of anti-β2GPI mAb×100 (CPM=counts/min). Each point represents mean±SD of three different experiments.
(g) Adherence of U937 monocyte cells to endothelial cells in the presence of anti-β2GPI mAbs and the inhibitory peptides. This assay was performed as previously described (Carvalho et al., 1996). Briefly, U937 cells (a monocyte/macrophage-like cell line) were pretreated with heat-aggregated gamma-globulin for 30 min at 37° C. […] Radioactivity associated with adherence was quantified by beta-scintillation spectroscopy. The results were expressed as percent of added U937 cells that adhered and are presented as the mean±SD from 3–5 replicate wells.
The adhesion of monocytes to endothelial cells (EC) is considered a marker of EC activation. The percentage of adhesion is expressed as the portion of added U937 monocyte cells adhering to the HUVEC (thus reflecting the percentage of HUVEC coverage by the monocytes). […]

KDKATFGTHDG [Peptide B]
inhibition of ILA-3 mAb binding to β2GPI (anti-β2GPI ILA-3 mAb [1]): 77% | inhibition of ILA-3 mAb binding to HUVEC (anti-β2GPI ILA-3 mAb [2]): 72% | inhibition of adhesion of U937 to HUVEC (anti-β2GPI ILA-3 mAb [3]): 95%
